Patent US12077503B2, “Substituted cyclic amides and their use as herbicides” (FMC CORPORATION, priority 2015, dated 2024)

Key:
Assay type in all cases: in vivo
Kochia (Kochia scoparia) [1] = assay: Test A preemergence; conditions: Bassia scoparia, pre-emergence, 240 h, preemergence, 0 to 100 scale where 0 is no effect and 100 is complete control, read-out: Kochia plant response rating; for pest or weed control at 125 g/ha: 125 g ai/ha, visual injury rating, approximately 10 d; for pest or weed control at 500 g/ha: 500 g ai/ha
Outline: (§1)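 Seeded soil received test chemicals as a preemergence directed spray, and seedlings at one to two leaves, 2–10 cm tall, received them postemergence, in a non-phytotoxic, surfactant-containing solvent mixture. Pots were held in a greenhouse for approximately 10 d, then rated for injury from 0, no effect, to 100, complete control.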

[2] = system: giant foxtail (Setaria faberii); assay: Test A preemergence; conditions: Setaria faberi, pre-emergence, 240 h, preemergence, 0 to 100 scale where 0 is no effect and 100 is complete control, read-out: Foxtail, Giant plant response rating; for pest or weed control at 125 g/ha: 125 g ai/ha, visual injury rating, approximately 10 d; for pest or weed control at 500 g/ha: 500 g ai/ha
Outline: as §1

[3] = system: barnyardgrass (Echinochloa crus-galli); assay: Test A preemergence; conditions: Echinochloa crus-galli, pre-emergence, 240 h, preemergence, 0 to 100 scale where 0 is no effect and 100 is complete control, read-out: Barnyardgrass plant response rating; for pest or weed control at 125 g/ha: 125 g ai/ha, visual injury rating, approximately 10 d; for pest or weed control at 500 g/ha: 500 g ai/ha
Outline: as §1

[4] = system: ryegrass, Italian (Italian ryegrass, Lolium multiflorum); assay: Test A preemergence; conditions: Lolium multiflorum, pre-emergence, 240 h, preemergence, 0 to 100 scale where 0 is no effect and 100 is complete control, read-out: Ryegrass, Italian plant response rating; for pest or weed control at 125 g/ha: 125 g ai/ha, visual injury rating, approximately 10 d; for pest or weed control at 500 g/ha: 500 g ai/ha
Outline: as §1

[5] = system: ragweed (common ragweed, Ambrosia elatior); assay: Test A preemergence; conditions: Ambrosia artemisiifolia, pre-emergence, 240 h, preemergence, 0 to 100 scale where 0 is no effect and 100 is complete control, read-out: Ragweed plant response rating; for pest or weed control at 125 g/ha: 125 g ai/ha, visual injury rating, approximately 10 d; for pest or weed control at 500 g/ha: 500 g ai/ha
Outline: as §1

[6] = system: Galium (catchweed bedstraw, Galium aparine); assay: Test A postemergence; conditions: Galium, post-emergence, 240 h, postemergence; for pest or weed control at 125 g/ha: 125 g ai/ha, visual injury vs untreated controls after approx. 10 d, 0 = no effect, 100 = complete control, read-out: Galium plant response rating (0 to 100 scale); for pest or weed control at 500 g/ha: 500 g ai/ha, 0 to 100 scale, 0 is no effect, 100 is complete control, read-out: Galium plant response rating
Outline: as §1

[7] = system: blackgrass (Alopecurus myosuroides); assay: Test A postemergence; conditions: Alopecurus myosuroides, post-emergence, 240 h, postemergence; for pest or weed control at 125 g/ha: 125 g ai/ha, visual injury vs untreated controls after approx. 10 d, 0 = no effect, 100 = complete control, read-out: Blackgrass plant response rating (0 to 100 scale); for pest or weed control at 500 g/ha: 500 g ai/ha, 0 to 100 scale, 0 is no effect, 100 is complete control, read-out: Blackgrass plant response rating
Outline: as §1

Kochia (Kochia scoparia) [8] = assay: Test A postemergence; conditions: Bassia scoparia, post-emergence, 240 h, postemergence; for pest or weed control at 125 g/ha: 125 g ai/ha, visual injury vs untreated controls after approx. 10 d, 0 = no effect, 100 = complete control, read-out: Kochia plant response rating (0 to 100 scale); for pest or weed control at 500 g/ha: 500 g ai/ha, 0 to 100 scale, 0 is no effect, 100 is complete control, read-out: Kochia plant response rating
Outline: as §1

[9] = system: pigweed (Amaranthus retroflexus); assay: Test A postemergence; conditions: Amaranthus retroflexus, post-emergence, 240 h, postemergence; for pest or weed control at 125 g/ha: 125 g ai/ha, visual injury vs untreated controls after approx. 10 d, 0 = no effect, 100 = complete control, read-out: Pigweed plant response rating (0 to 100 scale); for pest or weed control at 500 g/ha: 500 g ai/ha, 0 to 100 scale, 0 is no effect, 100 is complete control, read-out: Pigweed plant response rating
Outline: as §1

[10] = system: giant foxtail (Setaria faberii); assay: Test A postemergence; conditions: Setaria faberi, post-emergence, 240 h, postemergence; for pest or weed control at 125 g/ha: 125 g ai/ha, visual injury vs untreated controls after approx. 10 d, 0 = no effect, 100 = complete control, read-out: Foxtail, Giant plant response rating (0 to 100 scale); for pest or weed control at 500 g/ha: 500 g ai/ha, 0 to 100 scale, 0 is no effect, 100 is complete control, read-out: Foxtail, Giant plant response rating
Outline: as §1

[11] = system: barnyardgrass (Echinochloa crus-galli); assay: Test A postemergence; conditions: Echinochloa crus-galli, post-emergence, 240 h, postemergence; for pest or weed control at 125 g/ha: 125 g ai/ha, visual injury vs untreated controls after approx. 10 d, 0 = no effect, 100 = complete control, read-out: Barnyardgrass plant response rating (0 to 100 scale); for pest or weed control at 500 g/ha: 500 g ai/ha, 0 to 100 scale, 0 is no effect, 100 is complete control, read-out: Barnyardgrass plant response rating
Outline: as §1

[12] = system: ryegrass, Italian (Italian ryegrass, Lolium multiflorum); assay: Test A postemergence; conditions: Lolium multiflorum, post-emergence, 240 h, postemergence; for pest or weed control at 125 g/ha: 125 g ai/ha, visual injury vs untreated controls after approx. 10 d, 0 = no effect, 100 = complete control, read-out: Ryegrass, Italian plant response rating (0 to 100 scale); for pest or weed control at 500 g/ha: 500 g ai/ha, 0 to 100 scale, 0 is no effect, 100 is complete control, read-out: Ryegrass, Italian plant response rating
Outline: as §1

[13] = system: wheat (Triticum aestivum); assay: Test A postemergence; conditions: Triticum aestivum, post-emergence, 240 h, postemergence; for plant injury at 125 g/ha: 125 g ai/ha, visual injury vs untreated controls after approx. 10 d, 0 = no effect, 100 = complete control, read-out: Wheat plant response rating (0 to 100 scale); for plant injury at 500 g/ha: 500 g ai/ha, 0 to 100 scale, 0 is no effect, 100 is complete control, read-out: Wheat plant response rating
Outline: as §1

[14] = system: ragweed (common ragweed, Ambrosia elatior); assay: Test A postemergence; conditions: Ambrosia artemisiifolia, post-emergence, 240 h, postemergence; for pest or weed control at 125 g/ha: 125 g ai/ha, visual injury vs untreated controls after approx. 10 d, 0 = no effect, 100 = complete control, read-out: Ragweed plant response rating (0 to 100 scale); for pest or weed control at 500 g/ha: 500 g ai/ha, 0 to 100 scale, 0 is no effect, 100 is complete control, read-out: Ragweed plant response rating
Outline: as §1

corn (Zea mays) = assay: Test A postemergence; conditions: Zea mays, post-emergence, 240 h, postemergence; for plant injury at 125 g/ha: 125 g ai/ha, visual injury vs untreated controls after approx. 10 d, 0 = no effect, 100 = complete control, read-out: Corn plant response rating (0 to 100 scale); for plant injury at 500 g/ha: 500 g ai/ha, 0 to 100 scale, 0 is no effect, 100 is complete control, read-out: Corn plant response rating
Outline: as §1

SMILES	pest or weed control at 125 g/ha (Kochia (Kochia scoparia) [1]) [%]	pest or weed control at 500 g/ha (Kochia (Kochia scoparia) [1]) [%]	pest or weed control at 125 g/ha [2] [%]	pest or weed control at 500 g/ha [2] [%]	pest or weed control at 125 g/ha [3] [%]	pest or weed control at 500 g/ha [3] [%]	pest or weed control at 125 g/ha [4] [%]	pest or weed control at 500 g/ha [4] [%]	pest or weed control at 125 g/ha [5] [%]	pest or weed control at 500 g/ha [5] [%]	pest or weed control at 125 g/ha [6] [%]	pest or weed control at 500 g/ha [6] [%]	pest or weed control at 125 g/ha [7] [%]	pest or weed control at 500 g/ha [7] [%]	pest or weed control at 125 g/ha (Kochia (Kochia scoparia) [8]) [%]	pest or weed control at 500 g/ha (Kochia (Kochia scoparia) [8]) [%]	pest or weed control at 125 g/ha [9] [%]	pest or weed control at 500 g/ha [9] [%]	pest or weed control at 125 g/ha [10] [%]	pest or weed control at 500 g/ha [10] [%]	further results
N#Cc1cc([C@H]2CNC(=O)[C@]2(O)C(=O)Nc2ccccc2F)ccc1F [Compound 1200]	0	0	0	0	0	0	0	0	0	0	0	0	0	0	0	0	0	0	0	0	pest or weed control at 125 g/ha [11]: 0%; pest or weed control at 500 g/ha [11]: 0%; pest or weed control at 125 g/ha [12]: 0%; pest or weed control at 500 g/ha [12]: 0%; plant injury at 125 g/ha [13]: 0%; plant injury at 500 g/ha [13]: 0%; pest or weed control at 125 g/ha [14]: 0%; pest or weed control at 500 g/ha [14]: 0%; plant injury at 125 g/ha (corn (Zea mays)): 0%; plant injury at 500 g/ha (corn (Zea mays)): 0%
CSc1ccccc1NC(=O)[C@H]1C(=O)NC[C@@H]1c1ccc(F)c(C#N)c1 [Compound 1201]	30	70	70	80	0	70	0	0	60	70	30	50	0	0	40	70	20	60	70	90	pest or weed control at 125 g/ha [11]: 70%; pest or weed control at 500 g/ha [11]: 100%; pest or weed control at 125 g/ha [12]: 0%; pest or weed control at 500 g/ha [12]: 0%; plant injury at 125 g/ha [13]: 0%; plant injury at 500 g/ha [13]: 0%; pest or weed control at 125 g/ha [14]: 0%; pest or weed control at 500 g/ha [14]: 30%; plant injury at 125 g/ha (corn (Zea mays)): 0%; plant injury at 500 g/ha (corn (Zea mays)): 0%
COc1cc(C(F)(F)F)ccc1[C@H]1CN(C)C(=O)[C@@H]1C(=O)Nc1cccc(F)c1C [Compound 1205]	30	30	100	100	90	90	40	70	0	0	20	40	0	20	0	0	0	0	80	80	pest or weed control at 125 g/ha [11]: 40%; pest or weed control at 500 g/ha [11]: 50%; pest or weed control at 125 g/ha [12]: 0%; pest or weed control at 500 g/ha [12]: 30%; plant injury at 125 g/ha [13]: 30%; plant injury at 500 g/ha [13]: 40%; pest or weed control at 125 g/ha [14]: 0%; pest or weed control at 500 g/ha [14]: 0%; plant injury at 125 g/ha (corn (Zea mays)): 70%; plant injury at 500 g/ha (corn (Zea mays)): 80%
